Reference: patent US20150105252A1, “SUBSTITUTED PYRAZOLES AS HERBICIDES” (E I DU PONT DE NEMOURS AND COMPANY, priority 2013, published 2015)

Legend:
[1] = tested on: waterhemp; assay: Test C preemergence; type: in vivo, Amaranthus rudis; details: for Waterhemp plant response rating / Plant response rating, Waterhemp: preemergence; for Plant response rating, Waterhemp: scale 0 to 100, 0 = no effect, 100 = complete control
How it was run: (§1)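 In this greenhouse assay, seeded soil (loam plus sand) or emerged seedlings in peat-vermiculite medium were treated with formulated compound. Roughly two weeks later (13–15 days), each species was scored visually relative to controls, from 0 for no effect to 100 for complete control.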

[2] = tested on: sedge, umbrella; assay: Test B flood; type: in vivo, Cyperus difformis; details: 250 g ai/ha, visual rating on 0 to 100 scale (0 no effect, 100 complete control), 13 to 15 days
How it was run: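 Greenhouse assay lasting 13 to 15 days. Treatment was into water flooding pots 3 cm deep, at the 2-leaf stage, with that level sustained afterwards. Scores compare treated with control plants visually, 100 denoting complete control and 0 no effect; a dash marks no test result.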

[3] = tested on: velvetleaf; assay: Test A postemergence; type: in vivo, Abutilon theophrasti
How it was run: (§2)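 Ratings express plant response from 0 (no effect) to 100 (complete control), judged visually against untreated controls after approximately 10 days in the greenhouse. Preemergence applications were made as directed soil sprays onto seeded loam–sand mix, and postemergence applications onto 2–10 cm plants at one- to two-leaf stage.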

[4] = tested on: barnyardgrass; assay: Test A postemergence; type: in vivo, Echinochloa crus-galli
How it was run: as §2

[5] = tested on: pigweed; assay: Test C preemergence; type: in vivo, Amaranthus retroflexus; details: for Pigweed plant response rating / Plant response rating, Pigweed: preemergence; for Plant response rating, Pigweed: scale 0 to 100, 0 = no effect, 100 = complete control
How it was run: as §1

[6] = tested on: oat, wild; assay: Test C postemergence; type: in vivo, Avena fatua; details: for Plant response rating (scale of 0 to 100 where 0 is no effect and 100 is complete control), Oat, Wild: Postemergence, 31 g ai/ha, visually evaluated after 13 to 15 days; for Oat, Wild plant response rating / Plant response rating, Oat, Wild: postemergence; for Oat, Wild plant response rating: 62 g ai/ha, scale 0 to 100
How it was run: as §1

[7] = tested on: ryegrass, Italian; assay: Test C postemergence; type: in vivo, Lolium multiflorum
How it was run: as §1

[8] = tested on: wheat; assay: Test A postemergence; type: in vivo, Triticum aestivum
How it was run: as §2

[9] = tested on: soybean; assay: Test C preemergence; type: in vivo, Glycine max; details: for Soybean plant response rating / Plant response rating, Soybean: preemergence; for Plant response rating, Soybean: scale 0 to 100, 0 = no effect, 100 = complete control
How it was run: as §1

[10] = tested on: ryegrass, Italian; assay: Test C preemergence; type: in vivo, Lolium multiflorum; details: for Ryegrass, Italian plant response rating / Plant response rating, Ryegrass, Italian: preemergence; for Plant response rating, Ryegrass, Italian: scale 0 to 100, 0 = no effect, 100 = complete control
How it was run: as §1

[11] = tested on: barnyardgrass; assay: Test A preemergence; type: in vivo, Echinochloa crus-galli; details: preemergence
How it was run: as §2

[12] = tested on: corn; assay: Test A preemergence; type: in vivo, Zea mays; details: preemergence; for Corn plant response rating (0 to 100 scale): visual injury approx. 10 days after treatment
How it was run: as §2

[13] = tested on: johnsongrass; assay: Test C postemergence; type: in vivo, Sorghum halepense; details: for Plant response rating (scale of 0 to 100 where 0 is no effect and 100 is complete control), Johnsongrass: Postemergence, 31 g ai/ha, visually evaluated after 13 to 15 days; for Johnsongrass plant response rating / Plant response rating, Johnsongrass: postemergence; for Johnsongrass plant response rating: 62 g ai/ha, scale 0 to 100
How it was run: as §1

[14] = 31 g ai/ha, visual rating, scale 0 to 100 (0 no effect, 100 complete control), 13 to 15 days
[15] = 62 g ai/ha, scale 0 to 100 (0 no effect, 100 complete control), 13 to 15 days
[16] = 125 g ai/ha, scale 0 to 100, 0 is no effect, 100 is complete control
[17] = Postemergence, 500 g ai/ha, visual rating after approx. 10 days, 0 to 100 scale (0 no effect, 100 complete control)
[18] = postemergence, 125 g ai/ha, about 10 days, visual rating on 0 to 100 scale (0 no effect, 100 complete control)
[19] = 250 g ai/ha, scale 0 to 100 (0 no effect, 100 complete control)
[20] = 125 g ai/ha, scale 0 to 100, 0 no effect, 100 complete control
[21] = postemergence, 250 g ai/ha, scale 0 to 100 (0 no effect, 100 complete control)
[22] = postemergence, 125 g ai/ha, scale 0 to 100, 0 no effect, 100 complete control
[23] = 125 g ai/ha, visual injury, 0 to 100 scale, approx. 10 days
[24] = 500 g ai/ha, visual injury after approx. 10 days, 0 to 100 scale (0 no effect, 100 complete control)
[25] = 250 g ai/ha, scale 0 to 100, 0 is no effect, 100 is complete control
[26] = Postemergence, 500 g ai/ha, 0 to 100 scale (0 no effect, 100 complete control)
[27] = Postemergence, 125 g ai/ha, 0 to 100 scale, 0 no effect, 100 complete control

CCc1cc(C(=O)NCC(F)(F)F)nn1Cc1nc(C(F)(F)F)nn1C [Compound 107]
Plant response rating (scale of 0 to 100), Waterhemp ([1]; Preemergence, 250 g ai/ha): 100
Waterhemp plant response rating [1, 14]: 100
Waterhemp plant response rating [1, 15]: 100
Waterhemp plant response rating [1, 16]: 100
Plant response rating, Sedge, Umbrella [2]: 80
Velvetleaf plant response rating [3, 17]: 100
Velvetleaf plant response rating [3, 18]: 80
Barnyardgrass plant response rating [4, 17]: 90
Barnyardgrass plant response rating [4, 18]: 80
Plant response rating (scale of 0 to 100), Pigweed ([5]; Preemergence, 250 g ai/ha): 100
Pigweed plant response rating [5, 14]: 100
Pigweed plant response rating [5, 15]: 100
Pigweed plant response rating [5, 16]: 100
Plant response rating (scale of 0 to 100 where 0 is no effect and 100 is complete control), Oat, Wild [6]: 5
Oat, Wild plant response rating [6]: 5
Plant response rating, Oat, Wild [6, 19]: 40
Plant response rating, Oat, Wild [6, 20]: 5
Plant response rating (scale of 0 to 100 where 0 is no effect and 100 is complete control), Ryegrass, Italian ([7]; Postemergence, 31 g ai/ha, visually evaluated after 13 to 15 days): 0
Ryegrass, Italian plant response rating ([7]; postemergence, 62 g ai/ha, scale 0 to 100): 5
Plant response rating, Ryegrass, Italian [7, 21]: 5
Plant response rating, Ryegrass, Italian [7, 22]: 5
Wheat plant response rating [8, 17]: 80
Wheat plant response rating [8, 18]: 30
Plant response rating (scale of 0 to 100), Soybean ([9]; Preemergence, 250 g ai/ha): 95
Soybean plant response rating [9, 14]: 15
Soybean plant response rating [9, 15]: 95
Soybean plant response rating [9, 16]: 95
Plant response rating (scale of 0 to 100), Ryegrass, Italian ([10]; Preemergence, 250 g ai/ha): 100
Ryegrass, Italian plant response rating [10, 14]: 10
Ryegrass, Italian plant response rating [10, 15]: 60
Ryegrass, Italian plant response rating [10, 16]: 60
Barnyardgrass plant response rating [11, 23]: 100
Barnyardgrass plant response rating [11, 24]: 100
Corn plant response rating [12, 23]: 30
Corn plant response rating [12, 24]: 80
Plant response rating (scale of 0 to 100 where 0 is no effect and 100 is complete control), Johnsongrass [13]: 0
Johnsongrass plant response rating [13]: 0
Plant response rating, Johnsongrass [13, 19]: 70
Plant response rating, Johnsongrass [13, 20]: 5

CCNC(=O)c1cc(CC)n(Cc2cc(C(F)(F)F)nn2C)n1 [Compound 154]
Waterhemp plant response rating [1, 14]: 85
Waterhemp plant response rating [1, 15]: 100
Plant response rating, Waterhemp ([1]; 125 g ai/ha, 13 to 15 days): 100
Waterhemp plant response rating [1, 25]: 100
Plant response rating, Sedge, Umbrella [2]: 95
Velvetleaf plant response rating [3, 26]: 100
Velvetleaf plant response rating [3, 18]: 80
Barnyardgrass plant response rating [4, 26]: 100
Barnyardgrass plant response rating [4, 18]: 100
Pigweed plant response rating [5, 14]: 85
Pigweed plant response rating [5, 15]: 98
Plant response rating, Pigweed ([5]; 125 g ai/ha, 13 to 15 days): 100
Pigweed plant response rating [5, 25]: 100
Plant response rating (scale of 0 to 100 where 0 is no effect and 100 is complete control), Oat, Wild [6]: 5
Oat, Wild plant response rating [6]: 5
Plant response rating, Oat, Wild [6, 19]: 25
Plant response rating, Oat, Wild [6, 20]: 20
Plant response rating, Ryegrass, Italian [7, 21]: 5
Plant response rating, Ryegrass, Italian [7, 22]: 0
Wheat plant response rating [8, 26]: 100
Wheat plant response rating [8, 18]: 20
Soybean plant response rating [9, 14]: 35
Soybean plant response rating [9, 15]: 80
Plant response rating, Soybean ([9]; 125 g ai/ha, 13 to 15 days): 95
Soybean plant response rating [9, 25]: 98
Ryegrass, Italian plant response rating [10, 14]: 5
Ryegrass, Italian plant response rating [10, 15]: 10
Plant response rating, Ryegrass, Italian ([10]; 125 g ai/ha, 13 to 15 days): 50
Ryegrass, Italian plant response rating [10, 25]: 90
Barnyardgrass plant response rating [11, 23]: 90
Barnyardgrass plant response rating [11, 24]: 100
Corn plant response rating (0 to 100 scale) ([12]; 125 g ai/ha): 0
Corn plant response rating [12, 24]: 30
Plant response rating (scale of 0 to 100 where 0 is no effect and 100 is complete control), Johnsongrass [13]: 0
Johnsongrass plant response rating [13]: 0
Plant response rating, Johnsongrass [13, 19]: 5
Plant response rating, Johnsongrass [13, 20]: 5

CCCNC(=O)c1cc(OCC)n(Cc2ccnc(C(F)(F)F)c2)n1 [Compound 187]
Waterhemp plant response rating [1, 14]: 100
Waterhemp plant response rating [1, 15]: 100
Plant response rating, Waterhemp ([1]; 125 g ai/ha, 13 to 15 days): 100
Waterhemp plant response rating [1, 25]: 100
Plant response rating, Sedge, Umbrella [2]: 90
Velvetleaf plant response rating [3, 27]: 90
Velvetleaf plant response rating [3, 26]: 100
Barnyardgrass plant response rating [4, 26]: 90
Barnyardgrass plant response rating [4, 18]: 90
Pigweed plant response rating [5, 14]: 70
Pigweed plant response rating [5, 15]: 100
Plant response rating, Pigweed ([5]; 125 g ai/ha, 13 to 15 days): 100
Pigweed plant response rating [5, 25]: 100
Plant response rating (scale of 0 to 100 where 0 is no effect and 100 is complete control), Oat, Wild [6]: 10
Oat, Wild plant response rating [6]: 15
Plant response rating, Oat, Wild [6, 19]: 50
Plant response rating, Oat, Wild [6, 20]: 30
Plant response rating, Ryegrass, Italian [7, 21]: 30
Plant response rating, Ryegrass, Italian [7, 22]: 5
Wheat plant response rating [8, 27]: 50
Wheat plant response rating [8, 26]: 80
Soybean plant response rating [9, 14]: 85
Soybean plant response rating [9, 15]: 95
Plant response rating, Soybean ([9]; 125 g ai/ha, 13 to 15 days): 98
Soybean plant response rating [9, 25]: 98
Ryegrass, Italian plant response rating [10, 14]: 50
Ryegrass, Italian plant response rating [10, 15]: 80
Plant response rating, Ryegrass, Italian ([10]; 125 g ai/ha, 13 to 15 days): 90
Ryegrass, Italian plant response rating [10, 25]: 90
Barnyardgrass plant response rating (0 to 100 scale, 0 is no effect, 100 is complete control) ([11]; 125 g ai/ha, visual injury approx. 10 days after treatment): 90
Barnyardgrass plant response rating [11, 24]: 100
Corn plant response rating (0 to 100 scale) ([12]; 125 g ai/ha): 40
Corn plant response rating [12, 24]: 90
Plant response rating (scale of 0 to 100 where 0 is no effect and 100 is complete control), Johnsongrass [13]: 0
Johnsongrass plant response rating [13]: 5
Plant response rating, Johnsongrass [13, 19]: 25
Plant response rating, Johnsongrass [13, 20]: 5
